This passage reports EC50 and IC50 results from patent US10316017B2, “COT modulators and methods of use thereof” (Gilead Sciences, Inc., priority 2015, dated 2019).

Each structure is given as a SMILES string. Read-outs that look alike come from different tables or passages of the source. Where only a bound is given, the exact number is not on record here.

In test [1] the test system is TNFα production in LPS-stimulated human monocytes. The test can be described thus: Cot Monocyte TNFα Cell Based Assay. The note with it: Homo sapiens, Monocyte, read-out: EC50 TNF. In short, it runs like this: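 TR-FRET read-out of total secreted TNFα, normalized as % control (unstimulated = 0%, LPS-stimulated = 100%). Cells (5,000/well) were exposed to compound 1 h at 37 °C, then to 50 pg/ml LPS for a further 4 h.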

The target of test [2] is T1, human Cot catalytic domain (30-397 amino acids) (Homo sapiens, UniProt P41279).
T1 construct: Purified recombinant human Cot catalytic domain (30-397 amino acids) was purchased from Cama Biosciences; purchased Cama Biosciences (so in the source)
T1 sequence (P41279 30-397): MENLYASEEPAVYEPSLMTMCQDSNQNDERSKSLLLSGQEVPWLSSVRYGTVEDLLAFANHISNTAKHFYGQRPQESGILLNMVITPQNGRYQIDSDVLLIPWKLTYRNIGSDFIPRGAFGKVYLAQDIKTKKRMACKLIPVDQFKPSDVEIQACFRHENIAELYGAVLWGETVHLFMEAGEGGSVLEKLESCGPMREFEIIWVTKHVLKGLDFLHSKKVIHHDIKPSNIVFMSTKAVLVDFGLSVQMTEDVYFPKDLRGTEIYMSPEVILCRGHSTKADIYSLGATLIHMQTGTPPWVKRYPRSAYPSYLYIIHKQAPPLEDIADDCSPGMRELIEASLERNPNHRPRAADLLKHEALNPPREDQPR
The test can be described thus: High Throughput Cot Biochemical Assay (KinEASE TR-FRET). The note with it: read-out: IC50 HTRF. In a few lines:
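TR-FRET readout: Eu-labeled phospho-specific antibody binds XL665-tagged STK3 peptide after phosphorylation by Cot (aa 30-397, 5 nM). Conditions: 400 μM ATP, 1 μM peptide, MOPS pH 7.0 buffer with MgOAc, DTT, BSA, NP-40, glycerol; 0.1% DMSO.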
In general terms: TR-FRET usually uses a lanthanide donor and a delayed reading to cut background.

Where [3] appears, read: LPS-stimulated human monocytes, TNFα TR-FRET.
[4] abbreviates: Cot KinEASE TR-FRET, 400 μM ATP.
The mark [5] stands for this setting: TNFα in LPS-stimulated human monocytes.
The mark [6] stands for this setting: Cot biochemical HTRF (KinEASE TR-FRET) assay.
Where [7] appears, read: Cot KinEASE TR-FRET (HTRF) biochemical assay, 400 μM ATP.

As for `Cc1c(-c2cn(C)cn2)cccc1[C@H](Nc1cc(Cl)c2ncc(C#N)c(NCC(C)(C)C)c2c1)c1cn(C2(C(F)(F)F)CC2)nn1` [Example 1119, (S)-8-chloro-6-(((2-methyl-3-(1-methyl-1H-imidazol-4-yl)phenyl)(1-(1-(trifluoromethyl)cyclopropyl)-1H-1,2,3-triazol-4-yl)methyl)amino)-4-(neopentylamino)quinoline-3-carbonitrile], in test [1] (setting [3]), the concentration giving a half-maximal response (EC50) came to 351 nM. In addition, in test [2] (setting [4]), the IC50 turned out to be 11 nM.

`C[C@@H](Nc1c(C#N)cnc2c(Cl)cc(N[C@@H](c3ccc(Cl)cc3)c3cn(C4CCN(C(C)(C)C)CC4)nn3)cc12)c1ccccc1` [Example 704, 6-(((S)-(1-(1-(tert-butyl)piperidin-4-yl)-1H-1,2,3-triazol-4-yl)(4-chlorophenyl)methyl)amino)-8-chloro-4-(((R)-1-phenylethyl)amino)quinoline-3-carbonitrile]: the EC50 in test [1] (setting [5]) was 3510 nM. Further, the IC50 in test [2] (setting [6]) was determined as 37 nM.

Regarding `CC(C)(C)CNc1c(C#N)cnc2c(C#N)cc(N[C@H](c3cn(C4(C(N)=O)CCOCC4)nn3)c3ccccc3Cl)cc12` [Example 1023, (S)-4-(4-((2-chlorophenyl) ((3,8-dicyano-4-(neopentylamino)quinolin-6-yl)amino)methyl)-1H-1,2,3-triazol-1-yl)tetrahydro-2H-pyran-4-carboxamide], the EC50 in test [1] (setting [3]) was at least 1000 nM. The IC50 in test [2] (setting [4]) came out at 21 nM.

For `CCN1CCC(n2cc([C@@H](Nc3cc(Cl)c4ncc(C#N)c(Nc5ccc(F)c(Cl)c5)c4c3)c3ccc(F)cc3)nn2)CC1` [Compound 5], the EC50 in test [1] (setting [5]) came out at 153 nM. Also, in test [2] (setting [7]), the IC50 came to 2 nM.

`CC(=O)Nc1cccc([C@H](Nc2cc(Cl)c3ncc(C#N)c(Nc4ccc(F)c(Cl)c4)c3c2)c2cn(C3CCN(C(C)(C)C)CC3)nn2)c1` [Example 624, (S)-N-(3-((1-(1-(tert-butyl)piperidin-4-yl)-1H-1,2,3-triazol-4-yl)((8-chloro-4-((3-chloro-4-fluorophenyl)amino)-3-cyanoquinolin-6-yl)amino)methyl)phenyl)acetamide]: the EC50 in test [1] (setting [5]) was determined as 266 nM. In addition, the IC50 in test [2] (setting [6]) worked out at 3 nM.

As for `[2H][C@](Nc1cc(C#N)c2ncc(C#N)c(NCC(C)(C)C)c2c1)(c1ccc(F)cc1)c1cn(CCC2CN2C(C)(C)C)nn1` (stereo partly drawn) [Example 993, 6-(((1S)-(1-(2-(1-(tert-butyl)aziridin-2-yl)ethyl)-1H-1,2,3-triazol-4-yl)(4-fluorophenyl)methyl-d)amino)-4-(neopentylamino) quinoline-3,8-dicarbonitrile], the EC50 in test [1] is 3610 nM. The 50% inhibitory concentration (IC50) in test [2] (setting [4]) was found to be 32 nM.

Take `Cc1c(-c2cncn2C)cccc1[C@H](Nc1cc(C#N)c2ncc(C#N)c(NCC(C)(C)C)c2c1)c1cn(C2(C(F)F)CC2)nn1` [Example 1154, (S)-6-(((1-(1-(difluoromethyl)cyclopropyl)-1H-1,2,3-triazol-4-yl)(2-methyl-3-(1-methyl-1H-imidazol-5-yl)phenyl)methyl)amino)-4-(neopentylamino)quinoline-3,8-dicarbonitrile]: the concentration giving a half-maximal response (EC50) in test [1] (setting [3]) is 45 nM. Moreover, the half-inhibitory concentration (IC50) in test [2] (setting [4]) amounted to 2 nM.

Consider `[2H][C@@](Nc1cc(C#N)c2ncc(C#N)c(Nc3ccc(F)c(Cl)c3)c2c1)(c1cn(C2CC2)nn1)c1ccccc1Cl` [Example 182, (S)-4-((3-chloro-4-fluorophenyl)amino)-6-(((2-chlorophenyl)(1-cyclopropyl-1H-1,2,3-triazol-4-yl)methyl-d)amino) quinoline-3,8-dicarbonitrile], for which, in test [1] (setting [5]), the EC50 came to 136 nM. Besides, the half-maximal inhibitory concentration (IC50) in test [2] (setting [7]) came to 4 nM.

`COc1c([C@@H](Nc2cc(C#N)c3ncc(C#N)c(NCC(C)(C)C)c3c2)c2ccccc2Cl)nnn1C1(C)CC1` [Example 1160, (S)-6-(((2-chlorophenyl)(5-methoxy-1-(1-methylcyclopropyl)-1H-1,2,3-triazol-4-yl)methyl)amino)-4-(neopentylamino)quinoline-3,8-dicarbonitrile]: the EC50 in test [1] (setting [3]) was 930 nM. In addition, the IC50 in test [2] (setting [4]) amounted to 71 nM.

For `Cc1c(-c2ccncc2)cccc1[C@H](Nc1cc(Cl)c2ncc(C#N)c(NCC(C)(C)C)c2c1)c1cn(C2(C(F)F)CC2)nn1` [Example 1085, (S)-8-chloro-6-(((1-(1-(difluoromethyl)cyclopropyl)-1H-1,2,3-triazol-4-yl)(2-methyl-3-(pyridin-4-yl)phenyl)methyl)amino)-4-(neopentylamino)quinoline-3-carbonitrile], in test [1] (setting [3]), the 50% effective concentration (EC50) amounted to 205 nM. Besides, the IC50 in test [2] (setting [4]) stood at 5 nM.

Take `CC(C)(C)CNc1c(C#N)cnc2c(C#N)cc(N[C@@H](c3ccc(Cl)cc3)c3cn(C4CC4)nn3)cc12` [Example 77, (S)-6-(((4-chlorophenyl) (1-cyclopropyl-1H-1,2,3-triazol-4-yl)methyl)amino)-4-(neopentylamino) quinoline-3,8-dicarbonitrile]: the EC50 in test [1] (setting [5]) worked out at 108 nM. Further, in test [2] (setting [7]), the IC50 turned out to be 9 nM.

For `C[C@@H](Nc1c(C#N)cnc2c(Cl)cc(N[C@@H](c3ccccc3)c3cn(C4CCN(C(C)(C)C)CC4)nn3)cc12)c1ccccc1` [Example 569, 6-(((S)-(1-(1-(tert-butyl)piperidin-4-yl)-1H-1,2,3-triazol-4-yl)(phenyl)methyl)amino)-8-chloro-4-(((R)-1-phenylethyl)amino)quinoline-3-carbonitrile], the EC50 in test [1] (setting [5]) worked out at 721 nM. Also, in test [2] (setting [6]), the IC50 came to 7 nM.

Turning to `N#Cc1cnc2c(Cl)cc(NC(c3ccc(F)cc3)c3csnn3)cc2c1Nc1ccc(F)c(Cl)c1` (stereo not drawn) [Example 784, 8-chloro-4-((3-chloro-4-fluorophenyl)amino)-6-(((4-fluorophenyl)(1,2,3-thiadiazol-4-yl)methyl)amino)quinoline-3-carbonitrile], the EC50 in test [1] (setting [5]) was 1990 nM. Besides, the IC50 in test [2] (setting [6]) worked out at 249 nM.

As for `CC(C)n1cc([C@@H](Nc2cc(Cl)c3ncc(C#N)c(Nc4ccc(F)c(Cl)c4)c3c2)c2cccc(CN3CCCC3)c2)nn1` [Example 570, (S)-8-chloro-4-((3-chloro-4-fluorophenyl)amino)-6-(((1-isopropyl-1H-1,2,3-triazol-4-yl) (3-(pyrrolidin-1-ylmethyl)phenyl)methyl)amino) quinoline-3-carbonitrile], the EC50 in test [1] (setting [5]) was determined as 207 nM. For the same molecule, the concentration for half-maximal inhibition (IC50) in test [2] (setting [6]) worked out at 13 nM.

`[2H][C@](Nc1cc(Cl)c2ncc(C#N)c(N[C@@H]3CCCCC3(C)C)c2c1)(c1ccc(F)cc1)c1cn(C2CC2)nn1` [Example 318, 8-chloro-6-(((S)-(1-cyclopropyl-1H-1,2,3-triazol-4-yl)(4-fluorophenyl)methyl-d)amino)-4-(((R)-2,2-dimethylcyclohexyl)amino) quinoline-3-carbonitrile]: in test [1] (setting [5]), the EC50 was found to be 451 nM. The IC50 in test [2] (setting [7]) stood at 34 nM.

For the molecule `CNC(=O)c1cccc([C@H](Nc2cc(Cl)c3ncc(C#N)c(NCC(C)(C)C)c3c2)c2cn(C3(C(F)(F)F)CC3)nn2)c1F` [Example 1114, (S)-3-(((8-chloro-3-cyano-4-(neopentylamino)quinolin-6-yl)amino)(1-(1-(trifluoromethyl)cyclopropyl)-1H-1,2,3-triazol-4-yl)methyl)-2-fluoro-N-methylbenzamide], in test [1] (setting [3]), the EC50 is 408 nM. In addition, the IC50 in test [2] (setting [4]) turned out to be 5 nM.

Regarding `[2H][C@](Nc1cc(Cl)c2ncc(C#N)c(NCC3(C)CC(F)(F)C3)c2c1)(c1ccc(F)cc1)c1cn(C2CC2)nn1` [Example 199, (S)-8-chloro-6-(((1-cyclopropyl-1H-1,2,3-triazol-4-yl)(4-fluorophenyl)methyl-d)amino)-4-(((3,3-difluoro-1-methylcyclobutyl)methyl)amino) quinoline-3-carbonitrile], in test [1] (setting [5]), the EC50 is 395 nM. For the same molecule, the IC50 in test [2] (setting [7]) came to 21 nM.

As for `Cc1c(-c2ncco2)cccc1[C@H](Nc1cc(C#N)c2ncc(C#N)c(NCC(C)(C)C)c2c1)c1cn(C2(C(F)(F)F)CC2)nn1` [Example 1055, (S)-6-(((2-methyl-3-(oxazol-2-yl)phenyl)(1-(1-(trifluoromethyl)cyclopropyl)-1H-1,2,3-triazo1-4-yl)methyl)amino)-4-(neopentylamino)quinoline-3,8-dicarbonitrile], in test [1] (setting [3]), the EC50 was 100 nM. Further, in test [2] (setting [4]), the IC50 worked out at 3 nM.

`Cc1c([C@H](Nc2cc(Cl)c3ncc(C#N)c(NCC(C)(C)C)c3c2)c2cn(C3(C(F)(F)F)CC3)nn2)cccc1-n1cncn1` [Example 1040, (S)-8-chloro-6-(((2-methyl-3-(1H-1,2,4-triazol-1-yl)phenyl)(1-(1-(trifluoromethyl)cyclopropyl)-1H-1,2,3-triazol-4-yl)methyl)amino)-4-(neopentylamino)quinoline-3-carbonitrile]: the EC50 in test [1] (setting [3]) came out at 87 nM. Also, the IC50 in test [2] (setting [4]) worked out at 4 nM.

As for `[2H][C@@](Nc1cc(I)c2ncc(C#N)c(NCC(C)(C)C)c2c1)(c1cn(C2CC2)nn1)c1ccccc1Cl` [Example 953, (S)-6-(((2-chlorophenyl)(1-cyclopropyl-1H-1,2,3-triazol-4-yl)methyl-d)amino)-8-iodo-4-(neopentylamino)quinoline-3-carbonitrile], the EC50 in test [1] (setting [3]) was at least 1000 nM. In addition, the concentration for half-maximal inhibition (IC50) in test [2] (setting [4]) was found to be 111 nM.

As to `[2H][C@](Nc1cc(Cl)c2ncc(C#N)c(NC3(C)COC3)c2c1)(c1ccc(F)cc1)c1cn(C2CC2)nn1` [Example 214, (S)-8-chloro-6-(((1-cyclopropyl-1H-1,2,3-triazol-4-yl)(4-fluorophenyl)methyl-d)amino)-4-((3-methyloxetan-3-yl)amino)quinoline-3-carbonitrile], in test [1] (setting [5]), the EC50 came to 4220 nM. Also, the IC50 in test [2] (setting [7]) amounted to 151 nM.

The term EC50 denotes the concentration needed to bring the measured effect to its halfway point. Broadly, the IC50 is the concentration that gives 50% inhibition.
